Results from article PMC2074382 (British Journal of Cancer, 1996).
Counter-ions that a name gives are not always drawn.

Key:
[1] = tested on: patients with a solid tumour; experiment: Phase I study, toxicity (CTC criteria) of GI147211 30 min i.v. infusion daily x 5 every 3 weeks; type: in vivo, human
From the text: British Journal of Cancer (1996) 73, 744-750 O (C? 1996 Stockton Press All rights reserved 0007-0920/96 $12.00 Phase I and pharmacological study of the new topoisomerase I inhibitor G1147211, using a daily x 5 intravenous administration CJH Gerrits', GJ Creemers', JHM Schellens', P Wissel2, AS Th Planting', R Kunka2, K Selinger2, M de Boer-Dennert', Y Marijnen3, M Harteveld' and J Verweijl 'Department of Medical Oncology, Rotterdam Cancer Institute, Rotterdam, The Netherlands; 2Glaxo Wellcome Inc, Department of Clinical Pharmacology, NC, USA; 3Glaxo Wellcome Inc, Department of Clinical Research, Zeist, The Netherlands. Summary Topoisomerase I inhibitors are interesting anti-cancer agents with a novel mechanism of action. […] In subsequent patient cohorts the dose was escalated from 0.3 to 1.5 mg m-2 day-'. Pharmacokinetics analysis was performed on days 1 and 4 of the first course using a validated high- performance liquid chromatographic assay and non-compartmental methods. […] Its further development was stopped because of unpredictable and severe myelosuppression, gastrointestinal toxicity and haemorrhagic cystitis. In the late 1980s two discoveries brought about a renewal of interest in CPT; firstly, topoisomerase I was identified as the single cellular target of CPT (Hsiang et al., 1985; Hsiang and Liu, 1988) and, secondly, an overexpression of topoisomerase I was found in various tumour cell lines but not in normal tissues (Giovanella et al., 1989; Hirabayaski et al., 1992; Potmesil et al., 1988). Topoisomerase I is a nuclear enzyme that resolves topological problems of the torsionally strained (supercoiled) DNA (Slichenmyer et al., 1993). This is achieved by forming a covalent adduct between topoisome- rase I and the DNA, termed the cleavable complex. This catalytic intermediate creates single-strand DNA breaks, allowing the DNA molecule to rotate around the intact DNA strand at the cleavage site, leading to a relaxation of the DNA molecule and in this way replication, transcription and other DNA functions can proceed. These enzyme- bridged breaks are then resealed by topoisomerase I. CPT stabilises the cleavable complexes, thereby preventing resealing of single-strand DNA breaks in the presence of the drug (Covey et al., 1989; D'Arpa and Liu, 1989; Eng et al., 1988). Cytotoxicity is specific to the S-phase of the cell cycle because the double-strand breaks that occur during this phase are more difficult to repair in the presence of the drug (Horwitz and Horwitz, 1973). […] Other eligibility criteria included: (1) age>, 18 years; (2) an Eastern Cooperative Oncology Group (ECOG) performance status <2; (3) a predicted life expectancy of at least 3 months; (4) no previous anti-cancer therapy for at least 3 weeks (6 weeks for previous nitro- soureas or mitomycin C); (5) adequate haemato- poietic (WBC) 3 x 109 -', ANC > 1.5 x 109 1-' and platelets 100 x 10 1- 1), hepatic (bilirubin within normal limits, AST, ALT and/or alkaline phosphatase < 2.0 x normal), and renal (serum creatinine < 130 imol 1-') functions. All patients gave written informed consent.

mice = details: by rough estimate; cited from earlier work
[2] = 0.3 mg m-2 day-1, 3 patients, 10 evaluable courses
[3] = 0.6 mg m-2 day-1, 3 patients, 18 evaluable courses
[4] = 0.9 mg m-2 day-1, 3 patients, 9 evaluable courses
[5] = 1.2 mg m-2 day-1, 6 patients, 15 evaluable courses
[6] = 1.2 mg m-2 day-1, n=6, Table III
[7] = 1.2 mg m-2 day-1, n=7, Table III
[8] = 1.5 mg m-2 day-1, 6 patients, 15 evaluable courses
[9] = 1.5 mg m-2 day-1, n=7, Table III
[10] = 1.5 mg m-2 day-1, n=13, Table III

SMILES: CC[C@@]1(O)C(=O)OCc2c1cc1n(c2=O)Cc2c-1nc1cc3c(cc1c2CN1CCN(C)CC1)OCCO3 [GI147211, [7 - (methylpiperazinomethylene) - 10,11 - ethylene-dioxy-20(S)] camptothecin dihydrochloride]
- Leucocytes CTC grade 1, number of courses [1, 2]: 0
- Leucocytes CTC grade 2, number of courses [1, 2]: 0
- Leucocytes CTC grade 3, number of courses [1, 2]: 0
- Leucocytes CTC grade 4, number of courses [1, 2]: 0
- Neutrophils CTC grade 1, number of courses [1, 2]: 0
- Neutrophils CTC grade 2, number of courses [1, 2]: 0
- Neutrophils CTC grade 3, number of courses [1, 2]: 0
- Neutrophils CTC grade 4, number of courses [1, 2]: 0
- Platelets CTC grade 1, number of courses [1, 2]: 0
- Platelets CTC grade 2, number of courses [1, 2]: 0
- Platelets CTC grade 3, number of courses [1, 2]: 0
- Platelets CTC grade 4, number of courses [1, 2]: 0
- Leucocytes CTC grade 1, number of courses [1, 3]: 8
- Leucocytes CTC grade 2, number of courses [1, 3]: 0
- Leucocytes CTC grade 3, number of courses [1, 3]: 0
- Leucocytes CTC grade 4, number of courses [1, 3]: 0
- Neutrophils CTC grade 1, number of courses [1, 3]: 4
- Neutrophils CTC grade 2, number of courses [1, 3]: 1
- Neutrophils CTC grade 3, number of courses [1, 3]: 0
- Neutrophils CTC grade 4, number of courses [1, 3]: 0
- Platelets CTC grade 1, number of courses [1, 3]: 1
- Platelets CTC grade 2, number of courses [1, 3]: 0
- Platelets CTC grade 3, number of courses [1, 3]: 0
- Platelets CTC grade 4, number of courses [1, 3]: 0
- Leucocytes CTC grade 1, number of courses [1, 4]: 3
- Leucocytes CTC grade 2, number of courses [1, 4]: 1
- Leucocytes CTC grade 3, number of courses [1, 4]: 1
- Leucocytes CTC grade 4, number of courses [1, 4]: 0
- Neutrophils CTC grade 1, number of courses [1, 4]: 0
- Neutrophils CTC grade 2, number of courses [1, 4]: 4
- Neutrophils CTC grade 3, number of courses [1, 4]: 1
- Neutrophils CTC grade 4, number of courses [1, 4]: 0
- Platelets CTC grade 1, number of courses [1, 4]: 4
- Platelets CTC grade 2, number of courses [1, 4]: 2
- Platelets CTC grade 3, number of courses [1, 4]: 1
- Platelets CTC grade 4, number of courses [1, 4]: 0
- ANC nadir, range ([1]; 1.2 mg m-2 day-1): 0.08-5.6 x 109 l-1
- grade 3-4 neutropenia, courses ([1]; 1.2 mg m-2 day-1): 7/15
- grade 3-4 thrombocytopenia, courses ([1]; 1.2 mg m-2 day-1): 6/15
- median ANC nadir ([1]; 1.2 mg m-2 day-1): 1.29e+09 L⁻¹
- median platelet nadir ([1]; 1.2 mg m-2 day-1): 7.4e+10 L⁻¹
- platelet nadir, range ([1]; 1.2 mg m-2 day-1): 33-379 x 109 l-1
- subsequent courses postponed owing to prolonged myelosuppression ([1]; 1.2 mg m-2 day-1): 6/15
- Leucocytes CTC grade 1, number of courses [1, 5]: 1
- Leucocytes CTC grade 2, number of courses [1, 5]: 1
- Leucocytes CTC grade 3, number of courses [1, 5]: 4
- Leucocytes CTC grade 4, number of courses [1, 5]: 2
- Neutrophils CTC grade 1, number of courses [1, 5]: 2
- Neutrophils CTC grade 2, number of courses [1, 5]: 2
- Neutrophils CTC grade 3, number of courses [1, 5]: 1
- Neutrophils CTC grade 4, number of courses [1, 5]: 6
- Platelets CTC grade 1, number of courses [1, 5]: 0
- Platelets CTC grade 2, number of courses [1, 5]: 1
- Platelets CTC grade 3, number of courses [1, 5]: 6
- Platelets CTC grade 4, number of courses [1, 5]: 0
- Day nadir, thrombocytopenia (range) [1, 6]: 15 (10-19) day
- Median day of occurrence of grade 3-4 thrombocytopenia (range) [1, 6]: 15 (15-15) day
- Median number of days from grade 3-4 to recovery > grade 2 thrombocytopenia (range) [1, 6]: 7 (2-8) days
- Day nadir, neutropenia (range) [1, 7]: 22 (13-22) day
- Median day of occurrence of grade 3-4 neutropenia (range) [1, 7]: 15 (10-19) day
- Median number of days from grade 3-4 to recovery > grade 2 neutropenia (range) [1, 7]: 10 (1_10) days
- ANC nadir, range ([1]; 1.5 mg m-2 day-1): 0.01-1.7 x 109 l-1
- grade 3-4 neutropenia, courses ([1]; 1.5 mg m-2 day-1): 13/15
- grade 3-4 neutropenia, per cent of courses ([1]; 1.5 mg m-2 day-1): 86%
- median ANC nadir ([1]; 1.5 mg m-2 day-1): 9e+07 L⁻¹
- median platelet nadir ([1]; 1.5 mg m-2 day-1): 6.2e+10 L⁻¹
- platelet nadir, range ([1]; 1.5 mg m-2 day-1): 10-116 x 109 l-1
- thrombocytopenia complicated by gastrointestinal bleeding ([1]; 1.5 mg m-2 day-1): two
- thrombocytopenia grade 3-4, courses ([1]; 1.5 mg m-2 day-1): 7/15
- thrombocytopenia grade 3-4, per cent of courses ([1]; 1.5 mg m-2 day-1): 46%
- treatment delay, courses ([1]; 1.5 mg m-2 day-1): 5 of the 15 courses
- Leucocytes CTC grade 1, number of courses [1, 8]: 0
- Leucocytes CTC grade 2, number of courses [1, 8]: 9
- Leucocytes CTC grade 3, number of courses [1, 8]: 3
- Leucocytes CTC grade 4, number of courses [1, 8]: 3
- Neutrophils CTC grade 1, number of courses [1, 8]: 2
- Neutrophils CTC grade 2, number of courses [1, 8]: 0
- Neutrophils CTC grade 3, number of courses [1, 8]: 2
- Neutrophils CTC grade 4, number of courses [1, 8]: 11
- Platelets CTC grade 1, number of courses [1, 8]: 2
- Platelets CTC grade 2, number of courses [1, 8]: 6
- Platelets CTC grade 3, number of courses [1, 8]: 4
- Platelets CTC grade 4, number of courses [1, 8]: 3
- Day nadir, thrombocytopenia (range) [1, 9]: 15 (13 15) day
- Median day of occurrence of grade 3-4 thrombocytopenia (range) [1, 9]: 15 (10-15) day
- Median number of days from grade 3-4 to recovery > grade 2 thrombocytopenia (range) [1, 9]: 8 (5-12) days
- Day nadir, neutropenia (range) [1, 10]: 15 (13 -22) day
- Median day of occurrence of grade 3-4 neutropenia (range) [1, 10]: 10 (5-25) day
- Median number of days from grade 3-4 to recovery > grade 2 neutropenia (range) [1, 10]: 11 (4-25) days
- infectious complications ([1]; 1.5 mg m-2 day-1, two life-threatening septic): Three
- maximal tolerated dose ([1]; 30 min i.v. infusion daily x 5, every 3 weeks): 1.2 mg m-2 day-1
- severity of nausea and vomiting ([1]; CTC grade): never worse than grade 1-2
- cumulative myelotoxicity ([1]; all dose levels): not observed
- mild headache, courses ([1]; all dose levels): eight
- mild headache, per cent of courses ([1]; all dose levels): 12%
- nausea, per cent of given courses ([1]; all dose levels): 44%
- other non-haematological toxicities ([1]; all dose levels): no diarrhoea, mucositis, liver or renal toxicity
- vomiting, per cent of given courses ([1]; all dose levels): 22%
- nausea, number of given courses ([1]; all dose levels, 67 courses): 30 courses
- vomiting, number of given courses ([1]; all dose levels, 67 courses): 15 courses
- dose-limiting toxicities ([1]; at 1.5 mg m-2 day-1): neutropenia and thrombocytopenia
- myelotoxicity ([1]; first two dose levels (0.3, 0.6 mg m-2 day-1)): No myelotoxicity
- alopecia grade 1 ([1]; highest two dose levels): three
- anaemia ([1]; in vivo): occurred frequently but was never severe
- recommended dose for phase II studies ([1]; x 5 every 3 weeks): 1.2 mg m-2
- murine LD10 compared with topotecan (mice): equivalent to topotecan
